Measured values reported in patent US20030083271A1, “Topoisomerase I selective cytotoxic sugar derivatives of indolopyrrolocarbazoles” (priority 2001, published 2003).
Marks after values point to notes of the source that are not given here.

Legend:
[1] = target: T1, purified human topoisomerase I (Homo sapiens, UniProt P11387); assay: Topoisomerase I-mediated single strand DNA break induction (in vitro); assay type: biochemical; settings: median effect concentration for inducing single-strand breaks in the DNA substrate; read-out: Topo I EC50
T1 construct: purchased Topogen
T1 sequence (P11387 1-765): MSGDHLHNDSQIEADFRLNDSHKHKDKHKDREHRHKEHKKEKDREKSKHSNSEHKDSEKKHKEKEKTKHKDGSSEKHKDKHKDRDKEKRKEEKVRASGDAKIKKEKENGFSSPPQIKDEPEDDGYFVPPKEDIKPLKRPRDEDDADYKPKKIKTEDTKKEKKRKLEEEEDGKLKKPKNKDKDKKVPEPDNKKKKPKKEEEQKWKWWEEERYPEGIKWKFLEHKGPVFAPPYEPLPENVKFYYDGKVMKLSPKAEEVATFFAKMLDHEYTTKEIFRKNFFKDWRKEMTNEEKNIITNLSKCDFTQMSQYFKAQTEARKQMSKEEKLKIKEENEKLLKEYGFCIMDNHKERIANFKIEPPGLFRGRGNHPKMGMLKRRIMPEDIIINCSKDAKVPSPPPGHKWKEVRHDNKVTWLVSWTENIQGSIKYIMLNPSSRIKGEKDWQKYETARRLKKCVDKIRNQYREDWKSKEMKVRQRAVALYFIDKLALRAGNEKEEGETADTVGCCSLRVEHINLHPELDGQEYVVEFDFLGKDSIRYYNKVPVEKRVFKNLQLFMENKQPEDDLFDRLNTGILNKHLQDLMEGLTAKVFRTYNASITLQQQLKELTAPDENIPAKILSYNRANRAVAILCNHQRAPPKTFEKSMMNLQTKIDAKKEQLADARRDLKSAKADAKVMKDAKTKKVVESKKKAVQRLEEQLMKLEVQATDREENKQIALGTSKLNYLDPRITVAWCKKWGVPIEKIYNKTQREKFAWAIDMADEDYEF
Summary of the method: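 Supercoiled PM2 DNA incubated with compound dilutions and 1000 units purified human topoisomerase I, 30 min at 37° C; stopped with SDS/proteinase K. Products separated on ethidium-stained agarose gel, quantified by densitometry as % single-strand breaks; EC50 interpolated from dose-effect curve.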

[2] = system: HT-29 colon carcinoma; assay: In vivo antitumor activity, HT-29 xenograft; parameters: species or system Balb/c athymic (nude) female mice; settings: for LCK (gross log cell kill): HT29 sc xenograft in nude mice, at optimal or maximum tolerated dose, CPT-11 run as comparator in same experiment; for MTD (optimal or maximum tolerated dose level tested): HT29 xenograft experiment, nude mice
Protocol: (§1) Compounds: Examples of this invention were administered in an appropriate vehicle such as cremophor/ethanol/water (10%/10%/80%), in normal saline, water/carboxymethylcellulose vehicle.
(§2) All compounds were tested at several dose levels, with attempts each time to achieve their maximum tolerated dose (MTD). […] The optimal dose (OD) was the dose producing the best therapeutic effect, and was usually, but not always, synonymous with the MTD.
(§3) Tumors: Human tumors (HCT-116 and HT-29 colon carcinomas) were grown as xenografts in Balb/c athymic (nude) female mice. Antitumor assays. All tumors were implanted subcutaneously (sc) as 3-4mm fragments using a 13 gauge trochar. There were generally eight mice per treatment and control group. When treatment was delayed until tumors had obtained a certain size (weight), referred to as a staged tumor experiment (expt.), tumor-bearing mice were selected so that their tumors fell within a limited range of sizes for the particular expt.
(§4) Tumors were measured by calipers, and tumor weight calculated by the formula length (mm) times (×) width (mm)^2/2=tumor weight (mg). The median time (in days) to reach a predetermined tumor target size (for example, 500 mg) for untreated, control (C) mice relative to the time to reach the same target size for treated (T) mice, was calculated as a T-C value. T-C values were divided by the tumor volume doubling time (TVDT), and multiplied by 3.32, to yield a gross log cell kill (LCK) value, [i.e., (T-C)/TVDT×3.32=LCK].
(§5) A mouse was considered cured if there was no palpable tumor after a period of time equal to 10×TVDT post-reatment (Rx).

[3] = system: HCT-116 colon carcinoma; assay: In vivo antitumor activity, HCT-116 xenograft; parameters: species or system Balb/c athymic (nude) female mice; settings: for LCK (gross log cell kill): HT116 sc xenograft in nude mice, at optimal or maximum tolerated dose, CPT-11 run as comparator in same experiment; for MTD (optimal or maximum tolerated dose level tested): HT116 xenograft experiment, nude mice
Protocol: as §1, §2, §3, §4, §5

Compound	EC50 [1] [nM]	LCK (gross log cell kill) [2]	MTD (optimal or maximum tolerated dose level tested) [2] [mpkpi]	LCK (gross log cell kill) [3]	MTD (optimal or maximum tolerated dose level tested) [3] [mpkpi]
O=C1NC(=O)c2c1c1c3cc(F)c(F)cc3sc1c1c2c2cc(F)c(F)cc2n1[C@@H]1O[C@H](CF)C[C@H](O)[C@H]1O [Example 9, 12-[4,6-Dideoxy-6-fluoro-β-D-glucopyranosyl]-2,3,9,10-tetrafluoro-5H, 13H-benzo[b]thienyl[2,3-a]pyrrolo[3,4-c]carbazole-5,7(6H)-dione]	230	>1.4	>22	>3.4	>22
O=C1NC(=O)c2c1c1c3cc(F)ccc3[nH]c1c1c2c2cc(F)ccc2n1[C@@H]1O[C@H](CO)[C@@H](F)[C@H](O)[C@H]1O [Example 24, 12-[4-Deoxy-4-fluoro-β-D-glucopyranosyl]-3,9-difluoro-12,13-dihydro-5H-indolo[2,3-a]pyrrolo[3,4-c]carbazole-5,7(6H)-dione]	20	2.1	15	1.3	10
O=C1NC(=O)c2c1c1c3cc(F)c(F)cc3sc1c1c2c2cc(F)c(F)cc2n1[C@@H]1O[C@H](CF)[C@@H](F)[C@H](O)[C@H]1O [Example 26, 12-[4,6-Difluoro-4,6-dideoxy-β-D-glucopyranosyl]-2,3,9,10-tetrafluoro-5H, 13H-benzo[b]thienyl[2,3-a]pyrrolo[3,4-c]carbazole-5,7(6H)-dione]	130	1.4	>9	>3.4	>9
O=C1NC(=O)c2c1c1c3cc(F)ccc3[nH]c1c1c2c2cc(F)ccc2n1[C@@H]1O[C@H](CF)[C@@H](F)[C@H](O)[C@H]1O [Example 27]	150	1.9^a	11	>1.4^c	8
O=C1NC(=O)c2c1c1c3cc(F)c(F)cc3sc1c1c2c2cc(F)c(F)cc2n1[C@@H]1O[C@H](CO)[C@@H](F)[C@H](O)[C@H]1O [Example 33, 12-[4-Deoxy-4-fluoro-β-D-glucopyranosyl]-2,3,9,10-tetrafluoro-5H,13H-benzo[b]thienyl[2,3-a]pyrrolo[3,4-c]carbazole-5,7(6H)-dione]	50	>2.3^b	11	2.3	10
